Drawing on patent US20250129073A1, “INHIBITOR OF RECEPTOR-INTERACTING PROTEIN KINASE 1, AND PREPARATION METHOD AND USE THEREFOR” (CHINA PHARMACEUTICAL UNIVERSITY, priority 2021, published 2025), this text covers IC50 and inhibition for 40 molecules.

What is called IC50 is the concentration at which inhibition is half-maximal. One may read the inhibition as the relative decrease from the control value, in per cent.

For one test, the target named is RIPK1 kinase (Homo sapiens (Human), UniProt Q13546). Put plainly: RIPK1 kinase inhibitory assay (ADP-Glo). Format: biochemical.
Sequence of RIPK1 kinase (Q13546 whole entry): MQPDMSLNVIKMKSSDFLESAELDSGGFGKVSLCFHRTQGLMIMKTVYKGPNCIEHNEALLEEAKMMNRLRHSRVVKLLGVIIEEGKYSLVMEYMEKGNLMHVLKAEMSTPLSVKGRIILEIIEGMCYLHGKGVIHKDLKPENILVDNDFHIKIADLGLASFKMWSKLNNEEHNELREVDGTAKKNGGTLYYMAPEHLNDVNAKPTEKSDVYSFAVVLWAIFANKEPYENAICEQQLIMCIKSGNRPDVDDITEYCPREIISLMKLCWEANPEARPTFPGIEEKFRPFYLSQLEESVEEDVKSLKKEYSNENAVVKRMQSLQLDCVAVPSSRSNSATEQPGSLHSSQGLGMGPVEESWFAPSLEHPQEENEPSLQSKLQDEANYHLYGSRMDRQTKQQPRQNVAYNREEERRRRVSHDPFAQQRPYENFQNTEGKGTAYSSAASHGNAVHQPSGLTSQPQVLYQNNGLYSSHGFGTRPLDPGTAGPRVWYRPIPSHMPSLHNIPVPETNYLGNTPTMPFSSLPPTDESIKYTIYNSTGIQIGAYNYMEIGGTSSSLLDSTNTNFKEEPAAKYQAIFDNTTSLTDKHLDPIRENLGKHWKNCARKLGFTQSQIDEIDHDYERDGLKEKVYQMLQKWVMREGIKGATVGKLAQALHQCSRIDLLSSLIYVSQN
Conditions: not given
The protocol: Materials and Instruments: ADP-Glo kinase kit (purchased from Promega), RIPK1 GST-Th-Tag (purchased from Bps Bioscience), MBP substrate (purchased from Millipore), nunc 384-well plate, ATP fluorescence analyzer Paradigm detection platform (purchased from Beckman coulter)
The compounds were diluted in DMSO and configured into a solution with a final concentration of 10 mM; Dilute RIP1 kinase from 140 ng/μL to 20 ng/μL for use. Dilute 10 mM of ATP to 100 μM for later use; Dilute 5 mg/mL of MBP to 1 mg/mL for later use. Appropriate embodiments were added into the well of the 384-well plate, 10 μl […] ATP was evenly mixed with 1 μl 1 mg/mL MB P, the mixed solution was added to the well, and 2 μL […] RIP1 kinase was added to the hole, and then incubated at room temperature for 1 h. Subsequently, 5 μL ADP-Glo reagent was added to each well and incubated at room temperature for 40 min. Then, 10 μL ADP-Glo detection reagent was added to each well and incubated at room temperature for 30 min. Finally, the RLU value (relative light unit) of each well was measured by ATP fluorometer, and each sample was repeated twice. Inhibition rate=(RLU value of blank group−RLU value of drug administration group)/RLU value of blank group×100%.
In general terms: ADP-Glo turns the ADP formed in a reaction into a luminescent signal.
For the molecule `CN1C(=O)C(Cc2c[nH]c3ccccc23)NC1=S` (stereo not shown) [Nec-1, reference compound], half-maximal inhibition (IC50) was put at 1.14 µM.

The test is the same for the next values; noted with them: 10 μM compound; read-out: Inhibition rate of RIPK1 at 10 μM (%).
For `Cc1nnc(N2CCC3(CCN(Cc4cc(F)ccc4F)C3=O)CC2)o1` [Compound 55, 2-(2,5-difluorobenzyl)-8-(5-methyl-1,3,4-oxadiazol-2-yl)-2,8-diazaspiro[4.5]decan-1-one], the inhibition at 10 µM was 13%. Consider `O=C(c1ccccc1)N1CCC2(CC1)CCN(CC1CCCC1)C2=O` [Compound 12, 8-benzoyl-2-(cyclopentylmethyl)-2,8-diazaspiro[4.5]decan-1-one], for which the inhibition at 10 µM is above 50%. With `O=C(c1ccccc1)N1CCC2(CC1)N=CN(Cc1ccccc1F)C2=O` [Compound 60, 8-benzoyl-3-(2-fluorobenzyl)-1,3,8-triazaspiro[4.5]dec-1-en-4-one], the inhibition at 10 µM was above 50%. Still for that read-out and setting: to `O=C(c1cscn1)N1CCC2(CC1)CCN(Cc1cc(F)ccc1F)C2=O` [Compound 75, 2-(2,5-difluorobenzyl)-8-(thiazole-4-carbonyl)-2,8-diazaspiro [4.5]decan-1-one] belongs above 50%; to `O=C1N(Cc2ccccc2)CCC12CCN(S(=O)(=O)c1ccccc1)CC2` [Compound 20, 2-benzyl-8-(phenylsulfonyl)-2,8-diazaspiro [4.5]decan-1-one], 21%; to `O=C(c1ccccc1)N1CCC2(CCCN(Cc3ccccc3)C2=O)CC1` [Compound 74, 9-benzoyl-2-benzyl-2,9-diazaspiro[5.5]undecan-1-one], above 50%.

In the case of `O=C(c1ccccc1)N1CCC2(CC1)CCN(Cc1cccnc1)C2=O` [Compound 13, 8-benzoyl-2-(pyridin-3-ylmethyl)-2,8-diazaspiro[4.5]decan-1-one], the inhibition at 10 µM is above 50%. Consider `O=C(c1ccccc1)N1CCC2(CC1)CCN(Cc1cc(F)cc(F)c1F)C2=O` [Compound 53, 8-benzoyl-2-(2,3,5-trifluorobenzyl)-2,8-diazaspiro[4.5]decan-1-one], for which the inhibition at 10 µM was above 50%. On the same count and under the same terms, to `O=C(c1ccccc1)N1CCC2(C=NN(Cc3ccccc3F)C2=O)CC1` [Compound 63, 8-benzoyl-2-(2-fluorobenzyl)-2,3,8-triazaspiro[4.5]dec-3-en-1-one] belongs above 50%; to `O=C(c1ccccc1)N1CCC2(CC1)CCN(Cc1ccccn1)C2=O` [Compound 14, 8-benzoyl-2-(pyridin-2-ylmethyl)-2,8-diazaspiro[4.5]decan-1-one], above 50%; to `CN1C(=O)N(Cc2ccccc2)C(=O)C12CCN(C(=O)c1ccccc1)CC2` [Compound 2, 8-benzoyl-3-benzyl-1-methyl-1,3,8-triazaspiro [4.5] decane-2,4-dione], 8%. Consider `N#Cc1cc(N2CCC3(CCN(Cc4cc(F)ccc4F)C3=O)CC2)ncn1` [Compound 58, 6-(2-(2,5-difluorobenzyl)-1-oxo-2,8-diazaspiro[4.5]decan-8-yl)pyrimidine-4-carbonitrile], for which the inhibition at 10 µM was above 50%. The same measure, in the same setting: the figure for `O=C(c1ccccc1)N1CCC2(CC1)CN(Cc1ccccc1)C2=O` [Compound 73, 7-benzoyl-2-benzyl-2,7-diazaspiro[3.5]nonan-1-one] is 45%. Take `O=C(c1ccccc1)N1CCC2(CC1)CCN(Cc1cc(F)cc(F)c1)C2=O` [Compound 35, 8-benzoyl-2-(3,5-difluorobenzyl)-2,8-diazaspiro[4.5]decan-1-one]: the inhibition at 10 µM is above 50%.

In the case of `O=C(c1ccccc1)N1CCC2(C=NN(Cc3ccc(F)cc3)C2=O)CC1` [Compound 65, 8-benzoyl-2-(4-fluorobenzyl)-2,3,8-triazaspiro[4.5]dec-3-en-1-one], the inhibition at 10 µM amounted to 27%.

On to `O=C(c1ccccc1)N1CCC2(CC1)CCN(Cc1cccc(F)c1F)C2=O` [Compound 40, 8-benzoyl-2-(2,3-difluorobenzyl)-2,8-diazaspiro[4.5]decan-1-one], for which the inhibition at 10 µM was above 50%.

`N#Cc1ccc(CN2CCC3(CCN(C(=O)c4ccccc4)CC3)C2=O)c(F)c1` [Compound 48, 4-((8-benzoyl-1-oxo-2,8-diazaspiro[4.5]decan-2-yl)methyl)-3-fluorobenzonitrile]: the inhibition at 10 µM was determined as 8%.

`O=C(c1ccc2cc[nH]c2c1)N1CCC2(CC1)CCN(Cc1ccccc1)C2=O` [Compound 25, 2-benzyl-8-(1H-indole-6-carbonyl)-2,8-diazaspiro[4.5]decan-1-one]: the inhibition at 10 µM was above 50%.

On to `O=C(c1ccccc1)N1CCC2(CC1)CCN(Cc1ccc(F)c(F)c1F)C2=O` [Compound 38, 8-benzoyl-2-(2,3,4-trifluorobenzyl)-2,8-diazaspiro[4.5]decan-1-one], for which the inhibition at 10 µM was above 50%. The same measure, in the same setting: the figure for `CN1CCC2(CC1)CCN(Cc1ccccc1)C2=O` [Compound 21, 2-benzyl-8-methyl-2,8-diazaspiro[4.5]decan-1-one] is 5%; for `O=C(c1ccccc1)N1CCC2(CC1)CNN(Cc1ccccc1F)C2=O` [Compound 72, 8-benzoyl-2-(2-fluorobenzyl)-2,3,8-triazaspiro[4.5]decan-1-one] it is 40%; for `CN1C(=O)N(Cc2ccccn2)C(=O)C12CCN(C(=O)c1ccccc1)CC2` [Compound 6, 8-benzoyl-1-methyl-3-(pyridin-2-ylmethyl)-1,3,8-triazaspiro [4.5]decane-2,4-dione] it is 4%. As to `CN1C(=O)N(Cc2ccc(C(F)(F)F)cc2)C(=O)C12CCN(C(=O)c1ccccc1)CC2` [Compound 4, 8-benzoyl-1-methyl-3-(4-(trifluoromethyl)benzyl)-1,3,8-triazaspiro decane-2,4-dione], the inhibition at 10 µM was 16%. The same measure, in the same setting: to `O=C(c1ccccc1)N1CCC2(CC1)CCN(Cc1ccc(F)cc1)C2=O` [Compound 33, 8-benzoyl-2-(4-fluorobenzyl)-2,8-diazaspiro[4.5]decan-1-one] belongs above 50%. For `O=C(c1ccccc1)N1CCC2(CC1)CCN(CC1CCCCC1)C2=O` [Compound 11, 8-benzoyl-2-(cyclohexylmethyl)-2,8-diazaspiro[4.5]decan-1-one], the inhibition at 10 µM was above 50%. On to `O=C(c1ccccc1)N1CCC2(CC1)CCN(Cc1ccc(C(F)(F)F)cc1)C2=O` [Compound 15, 8-benzoyl-2-(4-(trifluoromethyl)benzyl)-2,8-diazaspiro[4.5]decan-1-one], for which the inhibition at 10 µM is above 50%. Take `O=C(c1c[nH]c2ccccc12)N1CCC2(CC1)CCN(Cc1ccccc1)C2=O` [Compound 23, 2-benzyl-8-(1H-indole-3-carbonyl)-2,8-diazaspiro[4.5]decan-1-one]: the inhibition at 10 µM was above 50%. Consider `Cn1ccc2ccc(C(=O)N3CCC4(CC3)CCN(Cc3ccccc3)C4=O)cc21` [Compound 29, 2-benzyl-8-(1-methyl-1H-indole-6-carbonyl)-2,8-diazaspiro[4.5]decan-1-one], for which the inhibition at 10 µM was above 50%. `O=C(c1ccc2[nH]ccc2c1)N1CCC2(CC1)CCN(Cc1ccccc1)C2=O` [Compound 24, 2-benzyl-8-(1H-indole-5-carbonyl)-2,8-diazaspiro[4.5]decan-1-one]: the inhibition at 10 µM was above 50%.

For the molecule `N#Cc1ccccc1CN1CCC2(CCN(C(=O)c3ccccc3)CC2)C1=O` [Compound 54, 2-((8-benzoyl-1-oxo-2,8-diazaspiro[4.5]decan-2-yl)methyl) benzonitrile], the inhibition at 10 µM came to 6%. In the case of `CN1C(=O)N(Cc2cccnc2)C(=O)C12CCN(C(=O)c1ccccc1)CC2` [Compound 5, 8-benzoyl-1-methyl-3-(pyridin-3-ylmethyl)-1,3,8-triazaspiro [4.5]decane-2,4-dione], the inhibition at 10 µM worked out at 20%.

With `O=C(c1ccccc1)N1CCC2(C=NN(Cc3cc(F)cc(F)c3)C2=O)CC1` [Compound 67, 8-benzoyl-2-(3,5-difluorobenzyl)-2,3,8-triazaspiro[4.5]dec-3-en-1-one], the inhibition at 10 µM is above 50%. With `O=C(c1ccccc1)N1CCC2(CC1)CCN(Cc1c(F)cccc1F)C2=O` [Compound 37, 8-benzoyl-2-(2,6-difluorobenzyl)-2,8-diazaspiro[4.5]decan-1-one], the inhibition at 10 µM is above 50%.

As to `O=C(c1ccccc1)N1CCC2(CC1)CCN(Cc1ccccc1)C2=O` [Compound 9, 8-benzoyl-2-benzyl-2,8-diazaspiro[4.5]decan-1-one], the inhibition at 10 µM is above 50%. On the same count and under the same terms, the figure for `O=C(c1ccccc1)N1CCC2(CC1)N=CN(Cc1cc(F)ccc1F)C2=O` [Compound 61, 8-benzoyl-3-(2,5-difluorobenzyl)-1,3,8-triazaspiro[4.5]dec-1-en-4-one] is above 50%. As for `O=C(c1ccncc1)N1CCC2(CC1)CCN(Cc1ccccc1)C2=O` [Compound 16, 2-benzyl-8-isonicotinoyl-2,8-diazaspiro[4.5]decan-1-one], the inhibition at 10 µM is above 50%. Regarding `O=C(c1ccccc1)N1CCC2(CC1)CCN(Cc1cc(Cl)ccc1F)C2=O` [Compound 47, 8-benzoyl-2-(5-chloro-2-fluorobenzyl)-2,8-diazaspiro[4.5]decan-1-one], the inhibition at 10 µM is above 50%. For the molecule `O=C(c1ccccc1)N1CCC2(CC1)CNN(Cc1ccccc1)C2=O` [Compound 71, 8-benzoyl-2-benzyl-2,3,8-triazaspiro[4.5]decan-1-one], the inhibition at 10 µM is 31%. As to `O=C1N(Cc2ccccc2)CCC12CCN(Cc1ccccc1)CC2` [Compound 19, 2,8-dibenzyl-2,8-diazaspiro[4.5]decan-1-one], the inhibition at 10 µM was 16%.
